Assay results taken from patent US20230365592A1 (Agios Pharmaceuticals, Inc., priority 2022, published 2023).

Each molecule was assayed against T1, human PAH with the R408W mutation (Homo sapiens, UniProt P00439, R408W) (assay: Cell Based Phenylalanine Flux Assay). Conditions: A375 cells expressing R408W PAH; 24 hrs with compound, then 20 µM sepiapterin and 800 µM 13C9,15N-Phenylalanine for 4 hours; 13C-Tyrosine by LC-MS; average where tested multiple times; read-out: AC50.
T1 construct: expressed in transfected cells
T1 sequence (P00439 1-452 R408W): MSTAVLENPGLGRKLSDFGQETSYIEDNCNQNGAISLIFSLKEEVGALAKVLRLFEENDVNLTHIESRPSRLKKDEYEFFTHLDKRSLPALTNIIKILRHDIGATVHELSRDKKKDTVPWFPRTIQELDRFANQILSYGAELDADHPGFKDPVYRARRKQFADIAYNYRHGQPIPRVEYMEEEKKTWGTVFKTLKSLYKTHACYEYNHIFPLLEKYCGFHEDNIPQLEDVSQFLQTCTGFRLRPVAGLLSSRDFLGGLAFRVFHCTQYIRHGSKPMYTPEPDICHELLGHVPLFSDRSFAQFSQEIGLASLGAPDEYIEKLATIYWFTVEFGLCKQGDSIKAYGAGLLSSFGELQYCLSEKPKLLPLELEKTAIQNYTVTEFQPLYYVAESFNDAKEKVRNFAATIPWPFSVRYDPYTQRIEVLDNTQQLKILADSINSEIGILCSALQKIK
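Also: after compound treatment, cells received sepiapterin plus isotope-labelled Phenylalanine for 4 hours, then labelled Tyrosine in the medium was quantified, 10-point 2-fold dilution series run in duplicate.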

Compared with `O=C(Cc1cnn2ccccc12)N1CCc2[nH]cnc2C1c1cc2ccccn2n1` (stereo not shown), `O=C(C1CC1)N1CCc2[nH]cnc2C1c1cc2ccccn2n1` (stereo not shown) is lower in AC50: > 5 µM for the first, 1 to 5 µM for the second.

First: Cc1cccc2cc(C3c4nc[nH]c4CCN3C(=O)c3nc(C(F)(F)F)nn3C)nn12 (stereo not shown) [listing 1 of 2 here]
Second: Cc1nc(C(=O)N2CCc3[nH]cnc3C2c2cc3cccc(C)n3n2)n(C)n1 (stereo not shown)
The AC50 of the first is higher: > 5 µM for the first, 1 to 5 µM for the second.

Compared with `Cn1cc(-c2nnc(C(=O)N3CCc4[nH]cnc4C3c3cc4cc(C(F)(F)F)ccn4n3)o2)cn1` (stereo not shown) [listing 1 of 2 here], `Cn1cc(-c2nnc(C(=O)N3CCc4[nH]cnc4C3c3cc4cc(F)ccn4n3)o2)cn1` (stereo not shown) is lower in AC50: > 5 µM for the first, 1 to 5 µM for the second.

Compared with `CC(C)(F)c1nnc(C(=O)N2CCc3[nH]cnc3C2c2cc3cc(F)ccn3n2)o1` (stereo not shown), `CC(C)(C)c1nnc(C(=O)N2CCc3[nH]cnc3C2c2cc3cc(F)ccn3n2)o1` (stereo not shown) [listing 1 of 2 here] is higher in AC50: 1 to 5 µM for the first, > 5 µM for the second.

`Cc1ccn2nc(C3c4nc[nH]c4CCN3C(=O)c3nnc(C(C)(C)F)o3)cc2c1` (stereo not shown) [listing 1 of 2 here] and `Cc1ccn2nc(C3c4nc[nH]c4CCN3C(=O)c3nnc(C(C)(C)O)o3)cc2c1` (stereo not shown) [listing 1 of 2 here] cannot be ordered by AC50: > 5 µM for the first, > 5 µM for the second.

First: O=C(c1ccn(-c2ccccn2)n1)N1CCc2[nH]cnc2C1c1cc2c(F)cccn2n1 (stereo not shown) [listing 1 of 2 here]
Second: Cc1cccn2nc(C3c4nc[nH]c4CCN3C(=O)c3ccn(-c4ccccn4)n3)cc12 (stereo not shown) [listing 1 of 2 here]
The AC50 of the first is lower: 1 to 5 µM for the first, > 5 µM for the second.

First: Cc1nnc(C(=O)N2CCc3[nH]cnc3C2c2cc3c(F)cccn3n2)o1 (stereo not shown) [listing 1 of 2 here]
Second: Cc1nnc(C(=O)N2CCc3[nH]cnc3C2c2cc3cc(F)ccn3n2)o1 (stereo not shown) [listing 1 of 2 here]
The AC50 of the first is higher: > 5 µM for the first, 1 to 5 µM for the second.

`Cn1ccc(-c2nnc(C(=O)N3CCc4[nH]cnc4C3c3cc4cc(F)ccn4n3)o2)n1` (stereo not shown) [listing 1 of 2 here] and `O=C(c1nnc(-c2ccccn2)o1)N1CCc2[nH]cnc2C1c1cc2cc(F)ccn2n1` (stereo not shown) [listing 1 of 2 here] cannot be ordered by AC50: > 5 µM for the first, > 5 µM for the second.

`Cc1nnc(C(=O)N2CCc3[nH]cnc3C2c2cc3cccc(Cl)n3n2)o1` (stereo not shown) [listing 1 of 2 here] and `Cc1nnc(C(=O)N2CCc3[nH]cnc3C2c2cc3cccc(C)n3n2)o1` (stereo not shown) fall in the same range of AC50: 1 to 5 µM for the first, 1 to 5 µM for the second.

`O=C(c1nnc(-c2ccccn2)o1)N1CCc2[nH]cnc2C1c1cc2cc(C(F)(F)F)ccn2n1` (stereo not shown) [listing 1 of 2 here] and `O=C(c1nnc(-c2ccccn2)o1)N1CCc2[nH]cnc2C1c1cc2cc(F)ccn2n1` (stereo not shown) [listing 2 of 2 here] fall in the same range of AC50: 1 to 5 µM for the first, 1 to 5 µM for the second.

`CC(C)(O)c1nnc(C(=O)N2CCc3[nH]cnc3C2c2cc3cccc(C(F)(F)F)n3n2)o1` (stereo not shown) [listing 1 of 2 here] and `Cc1nnc(C(=O)N2CCc3[nH]cnc3C2c2cc3cccc(C(F)(F)F)n3n2)o1` (stereo not shown) fall in the same range of AC50: 1 to 5 µM for the first, 1 to 5 µM for the second.

`Cc1ccn2nc(C3c4nc[nH]c4CCN3C(=O)c3nnc(C4CC4)o3)cc2c1` (stereo not shown) [listing 1 of 2 here] and `O=C(c1nnc(C2CC2)o1)N1CCc2[nH]cnc2C1c1cc2cc(C(F)(F)F)ccn2n1` (stereo not shown) fall in the same range of AC50: 1 to 5 µM for the first, 1 to 5 µM for the second.

`Cc1ccn2nc(C3c4nc[nH]c4CCN3C(=O)c3nnc(C(C)(C)C)o3)cc2c1` (stereo not shown) [listing 1 of 2 here] and `Cc1ccn2nc(C3c4nc[nH]c4CCN3C(=O)c3nnc(C(C)(C)F)o3)cc2c1` (stereo not shown) [listing 2 of 2 here] fall in the same range of AC50: 1 to 5 µM for the first, 1 to 5 µM for the second.

First: Cc1cccn2nc(C3c4nc[nH]c4CCN3C(=O)c3cc(C(C)(C)C)nn3C)cc12 (stereo not shown) [listing 1 of 2 here]
Second: Cn1nc(C(C)(C)C)cc1C(=O)N1CCc2[nH]cnc2C1c1cc2c(F)cccn2n1 (stereo not shown)
The AC50 of the first is higher: > 5 µM for the first, 1 to 5 µM for the second.

`Cn1nc(C(C)(C)C)cc1C(=O)N1CCc2[nH]cnc2C1c1cc2ccccn2n1` (stereo not shown) [listing 1 of 2 here] and `Cc1cccn2nc(C3c4nc[nH]c4CCN3C(=O)c3cc(C(C)(C)C)nn3C)cc12` (stereo not shown) [listing 2 of 2 here] fall in the same range of AC50: 1 to 5 µM for the first, 1 to 5 µM for the second.

`Cn1ncnc1C(=O)N1CCc2[nH]cnc2C1c1cc2cccc(Cl)n2n1` (stereo not shown) [listing 1 of 2 here] and `Cc1cccc2cc(C3c4nc[nH]c4CCN3C(=O)c3ncnn3C)nn12` (stereo not shown) fall in the same range of AC50: 1 to 5 µM for the first, 1 to 5 µM for the second.

`O=C(Cc1nncs1)N1CCc2nc[nH]c2C1c1cc2ccccn2n1` (stereo not shown) and `Cc1nc(C(=O)N2CCc3[nH]cnc3C2c2cc3ccccn3n2)n(C)n1` (stereo not shown) fall in the same range of AC50: 1 to 5 µM for the first, 1 to 5 µM for the second.

`CN1CCN(c2nnc(C(=O)N3CCc4[nH]cnc4C3c3cc4c(F)cccn4n3)o2)CC1` (stereo not shown) and `Cc1cccn2nc(C3c4nc[nH]c4CCN3C(=O)c3nnc(N4CCN(C)CC4)o3)cc12` (stereo not shown) fall in the same range of AC50: 1 to 5 µM for the first, 1 to 5 µM for the second.

`Cc1cccc2cc(C3c4nc[nH]c4CCN3C(=O)c3nc(C(F)(F)F)nn3C)nn12` (stereo not shown) [listing 2 of 2 here] and `Cc1cccc2cc(C3c4nc[nH]c4CCN3C(=O)c3nc(C(F)F)nn3C)nn12` (stereo not shown) fall in the same range of AC50: 1 to 5 µM for the first, 1 to 5 µM for the second.

`Cc1cccc2cc(C3c4nc[nH]c4CCN3C(=O)c3nnc(-c4cncn4C)o3)nn12` (stereo not shown) and `Cn1cncc1-c1nnc(C(=O)N2CCc3[nH]cnc3C2c2cc3cccc(Cl)n3n2)o1` (stereo not shown) fall in the same range of AC50: 1 to 5 µM for the first, 1 to 5 µM for the second.

`Cn1cc(-c2nnc(C(=O)N3CCc4[nH]cnc4C3c3cc4cc(C(F)(F)F)ccn4n3)o2)cn1` (stereo not shown) [listing 2 of 2 here] and `O=C(c1nnc(-c2ccccn2)o1)N1CCc2[nH]cnc2C1c1cc2cc(C(F)(F)F)ccn2n1` (stereo not shown) [listing 2 of 2 here] fall in the same range of AC50: 1 to 5 µM for the first, 1 to 5 µM for the second.

`O=C(c1ccn(-c2ccccn2)n1)N1CCc2[nH]cnc2C1c1cc2c(F)cccn2n1` (stereo not shown) [listing 2 of 2 here] and `Cc1cccn2nc(C3c4nc[nH]c4CCN3C(=O)c3ccn(-c4ccccn4)n3)cc12` (stereo not shown) [listing 2 of 2 here] fall in the same range of AC50: 1 to 5 µM for the first, 1 to 5 µM for the second.

`Cc1nnc(C(=O)N2CCc3[nH]cnc3C2c2cc3c(F)cccn3n2)o1` (stereo not shown) [listing 2 of 2 here] and `Cc1nnc(C(=O)N2CCc3[nH]cnc3C2c2cc3cc(F)ccn3n2)o1` (stereo not shown) [listing 2 of 2 here] fall in the same range of AC50: 1 to 5 µM for the first, 1 to 5 µM for the second.

First: Cn1ccc(-c2nnc(C(=O)N3CCc4[nH]cnc4C3c3cc4cc(F)ccn4n3)o2)n1 (stereo not shown) [listing 2 of 2 here]
Second: CC(C)(O)c1nnc(C(=O)N2CCc3[nH]cnc3C2c2cc3cc(F)ccn3n2)o1 (stereo not shown)
The AC50 of the first is lower: 1 to 5 µM for the first, > 5 µM for the second.

`Cc1nnc(C(=O)N2CCc3[nH]cnc3C2c2cc3cccc(Cl)n3n2)o1` (stereo not shown) [listing 2 of 2 here] and `CC(C)(O)c1nnc(C(=O)N2CCc3[nH]cnc3C2c2cc3cccc(Cl)n3n2)o1` (stereo not shown) fall in the same range of AC50: 1 to 5 µM for the first, 1 to 5 µM for the second.

`CC(C)(O)c1nnc(C(=O)N2CCc3[nH]cnc3C2c2cc3c(C(F)(F)F)cccn3n2)o1` (stereo not shown) and `CC(C)(O)c1nnc(C(=O)N2CCc3[nH]cnc3C2c2cc3ccc(C(F)(F)F)cn3n2)o1` (stereo not shown) fall in the same range of AC50: 1 to 5 µM for the first, 1 to 5 µM for the second.

`Cc1ccn2nc(C3c4nc[nH]c4CCN3C(=O)c3nnc(C(C)(C)O)o3)cc2c1` (stereo not shown) [listing 2 of 2 here] and `Cc1ccn2nc(C3c4nc[nH]c4CCN3C(=O)c3nnc(C(C)(C)C)o3)cc2c1` (stereo not shown) [listing 2 of 2 here] fall in the same range of AC50: 1 to 5 µM for the first, 1 to 5 µM for the second.

`CC(C)(O)c1nnc(C(=O)N2CCc3[nH]cnc3C2c2cc3ccc(F)cn3n2)o1` (stereo not shown) and `CC(C)(O)c1nnc(C(=O)N2CCc3[nH]cnc3C2c2cc3ccccn3n2)o1` (stereo not shown) fall in the same range of AC50: 1 to 5 µM for the first, 1 to 5 µM for the second.

`CC(C)(O)c1nnc(C(=O)N2CCc3[nH]cnc3C2c2cc3cccc(C(F)(F)F)n3n2)o1` (stereo not shown) [listing 2 of 2 here] and `CC(C)(C)c1nnc(C(=O)N2CCc3[nH]cnc3C2c2cc3ccc(C(F)(F)F)cn3n2)o1` (stereo not shown) fall in the same range of AC50: 1 to 5 µM for the first, 1 to 5 µM for the second.

Compared with `Cc1ccn2nc(C3c4nc[nH]c4CCN3C(=O)c3nnc(C4CC4)o3)cc2c1` (stereo not shown) [listing 2 of 2 here], `Cc1ccn2nc(C3c4nc[nH]c4CCN3C(=O)c3nnc(C)o3)cc2c1` (stereo not shown) is higher in AC50: 1 to 5 µM for the first, > 5 µM for the second.

`O=C(c1nnc(C2CC2)o1)N1CCc2[nH]cnc2C1c1cc2ccc(C(F)(F)F)cn2n1` (stereo not shown) and `Cc1nnc(C(=O)N2CCc3[nH]cnc3C2c2cc3ccc(C(F)(F)F)cn3n2)o1` (stereo not shown) fall in the same range of AC50: 1 to 5 µM for the first, 1 to 5 µM for the second.

`CC(C)(C)c1nnc(C(=O)N2CCc3[nH]cnc3C2c2cc3cc(F)ccn3n2)o1` (stereo not shown) [listing 2 of 2 here] and `Cn1nc(C(F)F)nc1C(=O)N1CCc2[nH]cnc2C1c1cc2cc(F)ccn2n1` (stereo not shown) fall in the same range of AC50: 1 to 5 µM for the first, 1 to 5 µM for the second.

`Cc1cccc2cc(C3c4nc[nH]c4CCN3C(=O)c3nc(C4CC4)nn3C)nn12` (stereo not shown) and `Cn1ncnc1C(=O)N1CCc2[nH]cnc2C1c1cc2cccc(Cl)n2n1` (stereo not shown) [listing 2 of 2 here] fall in the same range of AC50: 1 to 5 µM for the first, 1 to 5 µM for the second.

`Cn1nc(C(C)(C)C)cc1C(=O)N1CCc2[nH]cnc2C1c1cc2ccccn2n1` (stereo not shown) [listing 2 of 2 here] and `COc1cccn2nc(C3c4nc[nH]c4CCN3C(=O)c3cc(C(C)(C)C)nn3C)cc12` (stereo not shown) fall in the same range of AC50: 1 to 5 µM for the first, 1 to 5 µM for the second.

`O=C(c1ocnc1CC(F)F)N1CCc2[nH]cnc2C1c1cc2ccccn2n1` (stereo not shown) and `O=C(c1ocnc1C(F)F)N1CCc2[nH]cnc2C1c1cc2cc(C(F)(F)F)ccn2n1` (stereo not shown) fall in the same range of AC50: 1 to 5 µM for the first, 1 to 5 µM for the second.
